Here are results for 13 molecules from patent US7820623B2 (priority 2006, dated 2010).

Assay [1] concerns thapsigargin-induced IL-2 production in human whole blood.
In assay [2] the test system is thapsigargin-induced IFN-g production in human whole blood. The format is cell-based.
[3] abbreviates: read-out: Analogue Activity (IC50) WB/IL-2.
[4] abbreviates: read-out: Analogue Activity (IC50) WB/IFNg.

pIC50: −log10 of the molar value. Like-named read-outs stand apart in the source and are kept apart here. Bridge positions count the residues as written; N and C are the ends. Square brackets hold non-standard residues; d marks the D form. Peptide text beside a SMILES is read from it. 1Nal = N[C@@H](Cc1cccc2ccccc12)C(=O)O

As to `CC[C@H](C)[C@@H]1NC(=O)[C@H](CCCCN)NC(=O)[C@@H](NC(=O)[C@H](CCCCN)NC(=O)[C@H](Cc2cccc3ccccc23)NC(=O)[C@H](CC(N)=O)NC(=O)[C@@H](NC(=O)[C@@H](NC(=O)[C@@H](NC(=O)CN)C(C)C)[C@@H](C)CC)[C@@H](C)CC)CSSC[C@@H]2NC(=O)[C@H](CCCCN)NC(=O)CNC(=O)[C@H](Cc3ccccc3)NC(=O)[C@H](CCCNC(=N)N)NC(=O)[C@H](CCSC)NC(=O)CNC(=O)[C@H](C)NC(=O)[C@H](CCCCN)NC(=O)[C@H](CCCCN)NC(=O)[C@@H]3CSSC[C@@H](C(=O)N[C@H](C(=O)N4CCC[C@H]4C(=O)N[C@@H](CCCCN)C(=O)O)[C@@H](C)O)NC(=O)[C@H](Cc4c[nH]cn4)NC(=O)[C@H](CSSC[C@H](NC(=O)[C@H](CCC(N)=O)NC(=O)[C@H](CCCNC(=N)N)NC(=O)[C@H](CO)NC1=O)C(=O)N[C@@H](CC(C)C)C(=O)N[C@@H](CCC(=O)O)C(=O)N1CCC[C@H]1C(=O)N3)NC(=O)[C@H](CCCCN)NC(=O)CNC(=O)[C@H](CC(N)=O)NC(=O)[C@H](CCSC)NC2=O` [V6Nal] (H-GVIIN[1Nal]KCKISRQCLEPCKKAGMRFGKCMNGKCHCTPK-OH; disulfide 8-28, 14-33, 18-35), the pIC50 in assay [1] (setting [3]) was 8.75; in assay [2] (setting [4]), 8.61.
As for “GVIINVKCKISRQCLEPCKKAGMRFGKCANGKCHCTPK [Ala-29 (SEQ ID No: 1424)]”, the pIC50 in assay [1] (read-out: Average IC50 IL-2) was 9.35; in assay [2] (read-out: Average IC50 IFNg) it was 9.53.
Consider `CC[C@H](C)[C@@H]1NC(=O)[C@H](CCCCN)NC(=O)[C@@H](NC(=O)[C@H](CCCCN)NC(=O)[C@@H](NC(=O)[C@H](CC(N)=O)NC(=O)[C@@H](NC(=O)[C@@H](NC(=O)[C@@H](NC(=O)CN)C(C)C)[C@@H](C)CC)[C@@H](C)CC)C(C)C)CSSC[C@@H]2NC(=O)[C@H](CCCCN)NC(=O)CNC(=O)[C@H](C)NC(=O)[C@H](CCCNC(=N)N)NC(=O)[C@H](CCSC)NC(=O)CNC(=O)[C@H](C)NC(=O)[C@H](CCCCN)NC(=O)[C@H](CCCCN)NC(=O)[C@@H]3CSSC[C@@H](C(=O)N[C@H](C(=O)N4CCC[C@H]4C(=O)N[C@@H](CCCCN)C(=O)O)[C@@H](C)O)NC(=O)[C@H](Cc4c[nH]cn4)NC(=O)[C@H](CSSC[C@H](NC(=O)[C@H](CCC(N)=O)NC(=O)[C@H](CCCNC(=N)N)NC(=O)[C@H](CO)NC1=O)C(=O)N[C@@H](CC(C)C)C(=O)N[C@@H](CCC(=O)O)C(=O)N1CCC[C@H]1C(=O)N3)NC(=O)[C@H](CCCCN)NC(=O)CNC(=O)[C@H](CC(N)=O)NC(=O)[C@H](CCSC)NC2=O` [F25A] (H-GVIINVKCKISRQCLEPCKKAGMRAGKCMNGKCHCTPK-OH; disulfide 8-28, 14-33, 18-35), for which the pIC50 in assay [1] (setting [3]) and in assay [2] (setting [4]) was 8.51 each time.
With `CC[C@H](C)[C@@H]1NC(=O)[C@H](CCCCN)NC(=O)[C@@H](NC(=O)[C@H](CCCCN)NC(=O)[C@@H](NC(=O)[C@H](CC(N)=O)NC(=O)[C@@H](NC(=O)[C@@H](NC(=O)[C@H](CCC(=O)O)NC(=O)CN)[C@@H](C)CC)[C@@H](C)CC)C(C)C)CSSC[C@@H]2NC(=O)[C@H](CCCCN)NC(=O)CNC(=O)[C@H](Cc3ccccc3)NC(=O)[C@H](CCCNC(=N)N)NC(=O)[C@H](CCSC)NC(=O)CNC(=O)[C@H](C)NC(=O)[C@H](CCCCN)NC(=O)[C@H](CCCCN)NC(=O)[C@@H]3CSSC[C@@H](C(=O)N[C@H](C(=O)N4CCC[C@H]4C(=O)N[C@@H](CCCCN)C(=O)O)[C@@H](C)O)NC(=O)[C@H](Cc4c[nH]cn4)NC(=O)[C@H](CSSC[C@H](NC(=O)[C@H](CCC(N)=O)NC(=O)[C@H](CCCNC(=N)N)NC(=O)[C@H](CO)NC1=O)C(=O)N[C@@H](CC(C)C)C(=O)N[C@@H](CCC(=O)O)C(=O)N1CCC[C@H]1C(=O)N3)NC(=O)[C@H](CCCCN)NC(=O)CNC(=O)[C@H](CC(N)=O)NC(=O)[C@H](CCSC)NC2=O` [V2E] (H-GEIINVKCKISRQCLEPCKKAGMRFGKCMNGKCHCTPK-OH; disulfide 8-28, 14-33, 18-35), the pIC50 in assay [1] (setting [3]) is 10.01; in assay [2] (setting [4]), 9.74.
In the case of “GVIINVKCKISRQCLAPCKKAGMRFGKCMNGKCHCTPK [Ala-16 (SEQ ID No: 1413)]”, the pIC50 in assay [1] (read-out: Average IC50 IL-2) and in assay [2] (read-out: Average IC50 IFNg) was 10.00 in each case.
With `CC[C@H](C)[C@@H]1NC(=O)[C@H](CCCCN)NC(=O)[C@@H](NC(=O)[C@H](CCCCN)NC(=O)[C@@H](NC(=O)[C@H](CC(N)=O)NC(=O)[C@@H](NC(=O)[C@@H](NC(=O)[C@@H](NC(=O)CN)C(C)C)[C@@H](C)CC)[C@@H](C)CC)C(C)C)CSSC[C@@H]2NC(=O)[C@H](CCCCN)NC(=O)CNC(=O)[C@H](Cc3ccccc3)NC(=O)[C@H](CCCNC(=N)N)NC(=O)[C@H](CCSC)NC(=O)CNC(=O)[C@H](C)NC(=O)[C@H](CCCCN)NC(=O)[C@H](Cc3cccc4ccccc34)NC(=O)[C@@H]3CSSC[C@@H](C(=O)N[C@H](C(=O)N4CCC[C@H]4C(=O)N[C@@H](CCCCN)C(=O)O)[C@@H](C)O)NC(=O)[C@H](Cc4c[nH]cn4)NC(=O)[C@H](CSSC[C@H](NC(=O)[C@H](CCC(N)=O)NC(=O)[C@H](CCCNC(=N)N)NC(=O)[C@H](CO)NC1=O)C(=O)N[C@@H](CC(C)C)C(=O)N[C@@H](CCC(=O)O)C(=O)N1CCC[C@H]1C(=O)N3)NC(=O)[C@H](CCCCN)NC(=O)CNC(=O)[C@H](CC(N)=O)NC(=O)[C@H](CCSC)NC2=O` [K19Nal] (H-GVIINVKCKISRQCLEPC[1Nal]KAGMRFGKCMNGKCHCTPK-OH; disulfide 8-28, 14-33, 18-35), the pIC50 in assay [1] (setting [3]) is 10.24; in assay [2] (setting [4]), 10.00.
The matching figures for `CC[C@H](C)[C@@H]1NC(=O)[C@H](CCCCN)NC(=O)[C@@H](NC(=O)[C@H](CCCCN)NC(=O)[C@@H](NC(=O)[C@H](CC(N)=O)NC(=O)[C@@H](NC(=O)[C@@H](NC(=O)[C@@H](NC(=O)[C@@H](N)CCCNC(=N)N)C(C)C)[C@@H](C)CC)[C@@H](C)CC)C(C)C)CSSC[C@@H]2NC(=O)[C@H](CCCCN)NC(=O)CNC(=O)[C@H](Cc3ccccc3)NC(=O)[C@H](CCCNC(=N)N)NC(=O)[C@H](CCSC)NC(=O)CNC(=O)[C@H](C)NC(=O)[C@H](CCCCN)NC(=O)[C@H](CCCCN)NC(=O)[C@@H]3CSSC[C@@H](C(=O)N[C@H](C(=O)N4CCC[C@H]4C(=O)N[C@@H](CCCCN)C(=O)O)[C@@H](C)O)NC(=O)[C@H](Cc4c[nH]cn4)NC(=O)[C@H](CSSC[C@H](NC(=O)[C@H](CCC(N)=O)NC(=O)[C@H](CCCNC(=N)N)NC(=O)[C@H](CO)NC1=O)C(=O)N[C@@H](CC(C)C)C(=O)N[C@@H](CCC(=O)O)C(=O)N1CCC[C@H]1C(=O)N3)NC(=O)[C@H](CCCCN)NC(=O)CNC(=O)[C@H](CC(N)=O)NC(=O)[C@H](CCSC)NC2=O` [G1R] (H-RVIINVKCKISRQCLEPCKKAGMRFGKCMNGKCHCTPK-OH; disulfide 8-28, 14-33, 18-35): 9.26 and 9.00.
In the case of “AVIINVKCKISRQCLEPCKKAGMRFGKCMNGKCHCTPK [Ala-1 (SEQ ID No: 1400)]”, the pIC50 was 9.91 in assay [1] (read-out: Average IC50 IL-2) and 9.92 in assay [2] (read-out: Average IC50 IFNg).
Regarding `CC[C@H](C)[C@@H]1NC(=O)[C@H](CCCCN)NC(=O)[C@@H](NC(=O)[C@H](Cc2cccc3ccccc23)NC(=O)[C@@H](NC(=O)[C@H](CC(N)=O)NC(=O)[C@@H](NC(=O)[C@@H](NC(=O)[C@@H](NC(=O)CN)C(C)C)[C@@H](C)CC)[C@@H](C)CC)C(C)C)CSSC[C@@H]2NC(=O)[C@H](CCCCN)NC(=O)CNC(=O)[C@H](Cc3ccccc3)NC(=O)[C@H](CCCNC(=N)N)NC(=O)[C@H](CCSC)NC(=O)CNC(=O)[C@H](C)NC(=O)[C@H](CCCCN)NC(=O)[C@H](CCCCN)NC(=O)[C@@H]3CSSC[C@@H](C(=O)N[C@H](C(=O)N4CCC[C@H]4C(=O)N[C@@H](CCCCN)C(=O)O)[C@@H](C)O)NC(=O)[C@H](Cc4c[nH]cn4)NC(=O)[C@H](CSSC[C@H](NC(=O)[C@H](CCC(N)=O)NC(=O)[C@H](CCCNC(=N)N)NC(=O)[C@H](CO)NC1=O)C(=O)N[C@@H](CC(C)C)C(=O)N[C@@H](CCC(=O)O)C(=O)N1CCC[C@H]1C(=O)N3)NC(=O)[C@H](CCCCN)NC(=O)CNC(=O)[C@H](CC(N)=O)NC(=O)[C@H](CCSC)NC2=O` [K7Nal] (H-GVIINV[1Nal]CKISRQCLEPCKKAGMRFGKCMNGKCHCTPK-OH; disulfide 8-28, 14-33, 18-35), the pIC50 in assay [1] (setting [3]) is 9.65; in assay [2] (setting [4]) it was 9.61.
Take “GVIANVKCKISRQCLEPCKKAGMRFGKCMNGKCHCTPK [Ala-4 (SEQ ID No: 1403)]”: the pIC50 in assay [1] (read-out: Average IC50 IL-2) was 9.96; in assay [2] (read-out: Average IC50 IFNg) it was 10.06.
With `CC[C@H](C)[C@@H]1NC(=O)[C@H](CCCCN)NC(=O)[C@@H](NC(=O)[C@H](CCCCN)NC(=O)[C@@H](NC(=O)[C@H](CC(N)=O)NC(=O)[C@@H](NC(=O)[C@@H](NC(=O)[C@@H](NC(=O)CN)C(C)C)[C@@H](C)CC)[C@@H](C)CC)C(C)C)CSSC[C@@H]2NC(=O)[C@H](CCCCN)NC(=O)CNC(=O)[C@H](Cc3ccccc3)NC(=O)[C@H](CCCNC(=N)N)NC(=O)[C@H](CCSC)NC(=O)CNC(=O)[C@H](C)NC(=O)[C@H](CCCNC(=N)N)NC(=O)[C@H](CCCCN)NC(=O)[C@@H]3CSSC[C@@H](C(=O)N[C@H](C(=O)N4CCC[C@H]4C(=O)N[C@@H](CCCCN)C(=O)O)[C@@H](C)O)NC(=O)[C@H](Cc4c[nH]cn4)NC(=O)[C@H](CSSC[C@H](NC(=O)[C@H](CCC(N)=O)NC(=O)[C@H](CCCNC(=N)N)NC(=O)[C@H](CO)NC1=O)C(=O)N[C@@H](CC(C)C)C(=O)N[C@@H](CCC(=O)O)C(=O)N1CCC[C@H]1C(=O)N3)NC(=O)[C@H](CCCCN)NC(=O)CNC(=O)[C@H](CC(N)=O)NC(=O)[C@H](CCSC)NC2=O` [K20R] (H-GVIINVKCKISRQCLEPCKRAGMRFGKCMNGKCHCTPK-OH; disulfide 8-28, 14-33, 18-35), the pIC50 in assay [1] (setting [3]) was 10.17; in assay [2] (setting [4]), 10.08.
Turning to “des1, V2G, R12A, E16K, K19R, K20D, H34A (GIINVKCKISAQCLKPCRDAGMRFGKCMNGKCACTPK)”, the pIC50 in assay [1] (read-out: WB/IL-2 (IC50)) is 8.82; in assay [2] (read-out: WB/IFNg (IC50)) it was 8.65.
In the case of “GAIINVKCKISRQCLEPCKKAGMRFGKCMNGKCHCTPK [Ala-2 (SEQ ID No: 1401)]”, the figures for the pIC50 in assay [1] (read-out: Average IC50 IL-2) and in assay [2] (read-out: Average IC50 IFNg) were 10.05 and 9.99, respectively.
